Columns and labels:
Test in all cases: relative viability (nuclei count vs DMSO), 5 days (fraction); higher = more cells survive
[1] = compound: C1CCC(CC1)N(CCNCCC2=C3C(=C(C=C2)O)NC(=O)CO3)C(=O)CCNCCC4=CC(=C(C=C4)Cl)Cl [AZ505]
Procedure, shortened: (§1)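 Lung cancer cell lines in 1536-well plates were kept overnight at 37 °C, then pinned with five library-drug doses (not always all listed) spaced by √10 on vehicle-anchored plates. After 5 days without medium change, cells were fixed, permeabilised and Hoechst-stained in one step, imaged at 4×, and nuclei were counted with MetaXpress. Viability is treated-well nuclei divided by vehicle-well nuclei, taken as the median over plates. Plates passed only with control CV below 25% and at least one doubling.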

[2] = compound: Cn1c(=O)n(-c2ccc(C(C)(C)C#N)cc2)c2c3cc(-c4cnc5ccccc5c4)ccc3ncc21 [Dactolisib]
Procedure, shortened: as §1

[3] = compound: C1CCC(CC1)N(CCNCCC2=C3C(=C(C=C2)O)NC(=O)CO3)C(=O)CCNCCC4=CC(=C(C=C4)Cl)Cl [AZ505] + CC1(C)CCC(c2ccc(Cl)cc2)=C(CN2CCN(c3ccc(C(=O)NS(=O)(=O)c4ccc(N[C@H](CCN5CCOCC5)CSc5ccccc5)c(S(=O)(=O)C(F)(F)F)c4)cc3)CC2)C1 [Navitoclax] (partner 0.5 µM)
Procedure, shortened: (§2)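 Lung cancer cell lines were seeded in 1536-well plates and dosed by pin tool the next day, with either a single drug or a fixed anchor-drug dose combined with five library-drug doses (not always all listed) spaced in √10 steps. Five days later, one step fixed the cells and stained their nuclei (final 0.05% Triton X-100, 1% formaldehyde, 1 ug/ml Hoechst), and nuclei were counted on 4× images. Relative viability is the nuclei count in treated wells divided by the count in vehicle wells, and each value is the median of duplicate plates.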

[4] = compound: C1CCC(CC1)N(CCNCCC2=C3C(=C(C=C2)O)NC(=O)CO3)C(=O)CCNCCC4=CC(=C(C=C4)Cl)Cl [AZ505] + COc1cc2c(Oc3ccc(NC(=O)C4(C(=O)Nc5ccc(F)cc5)CC4)cc3F)ccnc2cc1OCCCN1CCOCC1 [Foretinib] (partner 0.25 µM)
Procedure, shortened: as §2

Cell Line	relative viability ([1]; 0.08 µM)	relative viability ([1]; 0.253 µM)	relative viability ([1]; 0.8 µM)	relative viability ([1]; 2.53 µM)	relative viability ([1]; 8 µM)	relative viability ([2]; 0.002 µM)	relative viability ([2]; 0.006325 µM)	relative viability ([2]; 0.02 µM)	relative viability ([2]; 0.06325 µM)	relative viability ([2]; 0.2 µM)	relative viability ([3]; first compound 0.08 µM)	relative viability ([3]; first compound 0.253 µM)	relative viability ([3]; first compound 0.8 µM)	relative viability ([3]; first compound 2.53 µM)	relative viability ([3]; first compound 8 µM)	relative viability ([4]; first compound 0.08 µM)	relative viability ([4]; first compound 0.253 µM)	relative viability ([4]; first compound 0.8 µM)	relative viability ([4]; first compound 2.53 µM)	relative viability ([4]; first compound 8 µM)
NCI-H1650	0.828	0.973	0.882	0.926	1.04	0.943	0.92	0.867	0.468	0.41	1.21	1.34	1.25	1.15	1.14	0.965	1.05	1.34	0.865	1.24
NCI-H1395	0.901	0.815	0.879	0.903	1.03	0.781	0.852	0.807	0.67	0.577	1.09	1.06	1.06	1.07	1.18	0.978	0.943	0.899	0.999	1.07
SK-LU-1	0.634	0.683	0.65	0.679	0.797	0.879	0.995	0.88	0.502	0.359	0.716	0.406	0.451	0.482	0.351	0.542	0.58	0.612	0.515	0.51
LU99A	0.782	1.02	0.979	0.813	0.944	0.93	0.904	0.766	0.429	0.31	0.745	0.814	0.839	0.894	0.749	–	0.987	0.815	0.78	0.751
NCI-H1355	0.928	0.854	0.97	0.936	1.03	1.05	0.925	0.915	0.479	0.369	0.883	0.864	0.908	0.915	0.987	0.819	1.01	0.992	1	1.01
HCC-78	0.794	0.775	0.861	0.937	0.978	1.06	0.909	0.829	0.657	0.387	–	0.852	0.832	0.919	0.818	0.575	0.631	0.578	0.568	0.644
HCC-15	0.938	0.963	1.03	0.956	1.1	0.98	0.974	0.985	0.635	0.422	0.657	0.734	0.697	0.721	0.669	0.911	1.04	1.03	1.02	1.02
EKVX	0.957	0.961	0.952	0.89	1.03	1.02	0.971	0.858	0.691	0.417	0.84	0.961	0.986	0.994	1.03	0.586	0.801	0.827	0.433	0.75
NCI-H2087	0.883	0.987	0.978	0.996	0.982	1.38	1.22	1.07	0.657	0.437	1.01	0.975	1.05	0.989	0.873	1.12	1.02	0.997	1.14	1.21
LK-2	0.974	1.17	0.941	1.09	1.11	0.905	0.877	0.846	0.433	0.253	0.825	0.952	0.805	0.934	0.842	1.28	1.34	1.18	1.08	1.68
NCI-H1437	0.977	1	0.983	1.01	0.991	1.01	0.991	1.03	0.914	0.741	1.03	1.14	1.06	1.07	1.08	1.16	1.26	1.21	1.29	1.18
COR-L23	0.947	0.97	0.893	0.933	0.95	1.15	1.06	0.911	0.27	0.249	0.893	1.01	0.877	0.833	0.928	0.878	0.928	0.909	0.863	0.975
NCI-H838	0.915	0.976	0.948	0.942	0.998	0.978	0.775	0.659	0.347	0.296	1.12	1.13	1.13	1.11	1.11	0.983	1.01	0.994	0.965	1.01
A549	0.864	0.985	0.93	0.968	1.04	0.995	0.871	0.729	0.225	0.182	1.2	1.23	1.14	1.2	1.32	0.895	1.06	0.812	1.03	1.06
A-427	0.932	0.958	0.886	1.08	0.99	1.1	0.908	0.936	0.572	0.586	0.967	0.942	0.919	0.949	0.802	1.05	1.04	0.997	1.1	1.13

— the supplement of paper PMC10307832
